Test results as given in patent US11186606B2, “Compositions and methods of modulating the immune response by activating alpha protein kinase 1” (Shanghai Yao Yuan Biotechnology Co., Ltd., priority 2017, dated 2021).

Columns and labels:
ALPK1 [1] = test: IL8 secretion in HEK293 cells (IL8 ELISA) as indicator of ALPK1 activation; details: added to the FBS-containing medium, HEK293 cells, IL8 secretion
Procedure: (§1) We pre-mixed H1b-ADP with phosphatase inhibitor sodium orthovanadate (Na3VO4) before incubation with FBS.
(§2) In these experiments, serial dilutions of the compounds were added to the tissue culture media of HEK293 cells with (FIG. 27B, FIG. 28B, FIG. 29B) or without (FIG. 26, FIG. 27A, FIG. 28A, FIG. 29A) 10% FBS, as indicated in the figures. After 4 hours, the cell supernatant was collected and analyzed for IL8 concentration using IL8 ELISA (BD) as an indicator of ALPK1 activation.

[2] = tested on: phosphatase activity in the serum; test: Incubation of H1b-ADP with FBS, product analysed by LC-MS; type: in vitro ADME, bovine; details: pre-treatment of H1b-ADP before serum incubation
Excerpt: FBS contains 110-352 U/ml alkaline phosphatase.

CT26 cells = test: CT26 tumor xenograft model, tumor volume; type: in vivo, BALB/c mice
Procedure: We used a CT26 tumor xenograft model to test the anti-cancer activity of H1b-ADP. Tumor cells (2×10^5 per 100 uL CT26 cells) were inoculated subcutaneously into the right flank of BALB/c mice. At day 6, mice whose tumors had reached 3-5 mm in diameter were randomized and grouped into three groups (n=8 each group), control, HMP-1bP (580 ug), and H1b-ADP (1.2 ug). Injections were performed using a total volume of 20 uL at days 6, 8, 10, 12, and 14 post inoculation. Tumor volumes were calculated every 2 days from caliper measurements of tumor dimension using the formula (L×W^2)/2, where L is the longer measurement.
To test whether H1b-ADP could augment an anti-tumor response by a checkpoint inhibitor, we tested the effects of co-administration with an anti-PD1 antibody. Tumor cells (2×10^5 per 100 μL CT26 cells) were inoculated subcutaneously into the left and right flanks of BALB/c mice. At day 7, mice whose tumors had reached 5 mm in diameter were randomized and grouped (n=8 each group) into the following four groups: anti-PD1 antibody; rat IgG; H1b-ADP+rat IgG; H1b-ADP+anti-PD1 antibody. We utilized RMP1-14 as the anti-PD1 antibody (10 mg/kg) and a rat IgG 2a (2A3) as the control IgG. Each of the anti-PD-1 antibody and the control IgG was administered intraperitoneally in a 200 μL volume on days 6, 10, 12, and 17 post-inoculation. H1b-ADP (6.2 μg) was intratumorally injected in a 20 μL volume at day 6, 8, 10, 12, and 15. Tumor volumes were calculated every 2 days from caliper measurements of tumor dimensions using the formula (L×W^2)/2, where L is the longer measurement. The results are shown in FIG. 13A for injected tumors and FIG. 13B for distant tumors. […]
The experiment was carried out as combo experiments of anti-PD1 except for the following variations. At day 6, mice whose tumors had reached 5 mm in diameter were randomized and grouped into the following four groups: c-di-AM(PS)2; PBS; H1b-ADP; H1b-ADP+c-di-AM(PS)2. We utilized c-di-AM(PS)2 as the STING agonist. Each of the c-di-AM(PS)2 (1 μg) and H1b-ADP (6.2 μg) was administered intratumorally in a 20 μL volume on days 6, 7, and 9 post-inoculation.
The experiment was carried out as combo experiments of anti-PD-1 except for the following variations. At day 6, mice whose tumors had reached 5 mm in diameter were randomized and grouped into the following four groups: anti-CD4 antibody (GK1.5 clone, BE0003-1, BioXcell); rat IgG; H1b-ADP+rat IgG; H1b-ADP+anti-CD4 antibody. Each of the anti-CD4 antibody (200 μg) and the control IgG (200 μg) was administered intraperitoneally in a 200 μL volume on days 3, 4, 8 post-inoculation. H1b-ADP (6.2 μg) was administered intratumorally in a 20 μL volume on days 6, 8, 10, 12, 14 post-inoculation.
The experiment was carried out as combo experiments of anti-PD-1 except for the following variations. At day 6, mice whose tumors had reached 5 mm in diameter were randomized and grouped into the following four groups: Resquimod; PBS; H1b-ADP; H1b-ADP+Resquimod. Resquimod (10 μg) and H1b-ADP (6.2 μg) were administered intratumorally in a 20 μL volume on days 6, 8, 11 post-inoculation.
We used a CT26 tumor xenograft model to test the anti-cancer activity of H1b-ADP derivative Compounds 1 and 2. Tumor cells (2×10^5 per 100 uL CT26 cells) were inoculated subcutaneously into the right flank of BALB/c mice. At day 7, mice whose tumors had reached 3-5 mm in diameter were randomized and grouped into three groups (n=9 each group), control, Compound 1 (50 nmol), and Compound 2 (50 nmol). Injections were performed using a total volume of 20 uL at days 7, 9, and 11 post inoculation. Tumor volumes were calculated every 2 days from caliper measurements of tumor dimension using the formula (L×W^2)/2, where L is the longer measurement.

[3] = tested on: mouse liver and lung tissue; test: Chemokine and cytokine expression in liver and lung tissue after subcutaneous injection (qPCR); type: in vivo; details: C57 mice, three hours
Procedure: In additional experiments, Compound 1 was injected subcutaneously into 7 week old C57 mice at concentrations of 2, 10, 50, and 200 nmol. Tissue was harvested three hours later and RNA extracted. Quantitative PCR (qPCR) was performed to determine the tissue expression levels Cxcl1, Cxcl11, IL1b, and IL6 in mouse liver (FIG. 32A) and lung (FIG. 32B) tissue. Additional chemokines and cytokines were assayed in the lung tissue.

ALPK1 [4] = target: T1, ALPK1 (Homo sapiens, UniProt Q96QP1); test: IL8 secretion in HEK293 cells (IL8 ELISA) as indicator of ALPK1 activation; details: without FBS, 4 hours
T1 sequence (Q96QP1 whole entry): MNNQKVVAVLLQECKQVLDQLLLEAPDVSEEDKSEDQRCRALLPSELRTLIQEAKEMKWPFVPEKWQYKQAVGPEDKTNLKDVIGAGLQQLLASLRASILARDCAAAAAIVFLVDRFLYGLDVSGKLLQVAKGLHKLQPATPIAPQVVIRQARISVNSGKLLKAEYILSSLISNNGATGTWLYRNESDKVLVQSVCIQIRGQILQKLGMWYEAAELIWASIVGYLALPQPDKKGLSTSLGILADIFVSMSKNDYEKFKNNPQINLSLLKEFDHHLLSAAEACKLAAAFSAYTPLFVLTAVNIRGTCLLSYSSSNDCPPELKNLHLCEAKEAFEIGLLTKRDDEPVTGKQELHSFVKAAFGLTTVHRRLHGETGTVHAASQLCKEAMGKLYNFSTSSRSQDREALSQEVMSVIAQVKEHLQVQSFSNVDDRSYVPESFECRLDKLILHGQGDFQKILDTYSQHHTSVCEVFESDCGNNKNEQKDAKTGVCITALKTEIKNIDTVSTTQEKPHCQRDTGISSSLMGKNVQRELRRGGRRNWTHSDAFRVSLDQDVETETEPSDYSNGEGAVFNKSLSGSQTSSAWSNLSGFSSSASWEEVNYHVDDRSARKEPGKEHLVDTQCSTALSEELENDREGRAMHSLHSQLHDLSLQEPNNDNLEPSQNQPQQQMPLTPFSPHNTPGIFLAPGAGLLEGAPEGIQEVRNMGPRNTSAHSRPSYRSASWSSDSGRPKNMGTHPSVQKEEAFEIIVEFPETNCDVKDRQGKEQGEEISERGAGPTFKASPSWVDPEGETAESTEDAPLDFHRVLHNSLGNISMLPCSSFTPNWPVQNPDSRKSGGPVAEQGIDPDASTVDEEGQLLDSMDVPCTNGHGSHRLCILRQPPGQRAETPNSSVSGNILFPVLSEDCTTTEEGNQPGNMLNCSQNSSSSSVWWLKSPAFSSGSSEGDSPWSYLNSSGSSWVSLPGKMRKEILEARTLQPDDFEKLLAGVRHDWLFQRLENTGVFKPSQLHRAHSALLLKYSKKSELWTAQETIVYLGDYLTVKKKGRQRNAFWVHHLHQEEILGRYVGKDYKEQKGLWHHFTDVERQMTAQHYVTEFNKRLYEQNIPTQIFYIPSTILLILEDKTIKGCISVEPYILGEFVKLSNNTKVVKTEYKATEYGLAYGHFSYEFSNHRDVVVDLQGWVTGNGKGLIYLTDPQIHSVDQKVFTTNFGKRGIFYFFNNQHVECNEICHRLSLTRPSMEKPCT
Procedure: as §1, §2

ALPK1 [5] = target: T1, ALPK1; test: In vitro kinase assay of ALPK1-dependent TIFA phosphorylation; type: biochemical; details: for phosphorylation of the ALPK1 substrate TIFA: FIG. 7, chemically-synthesized compounds
Procedure: We performed an in vitro kinase assay with H1b-ADP and H1b-ADP-6L along with ALPK1 protein (2 nM), and TIFA protein (1.6 uM) in kinase buffer containing 50 uM ATP. TIFA phosphorylation was analyzed by denaturing gel electrophoresis followed by western blotting using an anti-phosphothreonine antibody. H1b-ADP or H1b-ADP-6L was added at 2 nM, 0.4 nM, 80 pM, 16 pM, and 3 pM.
To test this, we performed an in vitro kinase reaction for ALPK1-dependent TIFA phosphorylation in the presence of either HBP or HIdA purified from E. coli containing inactivated HIdE, or in the presence of HBP and HIdA purified from the same HIdE wild-type E. coli used in the previous experiments. Phosphorylated TIFA (three concentrations, 1%, 0.2% and […]) was detected as described above by denaturing gel electrophoresis followed by Western analysis.

ALPK1 [6] = target: T1, ALPK1; test: IL-8 and TNFα mRNA expression in HEK293 cells with control or ALPK1-directed siRNA; type: cell-based; design: ALPK1-directed small interfering RNA (siRNA) to silence ALPK1 expression in HEK293 cells; endogenous in cells; host or cells: HEK293; details: for IL-8 mRNA expression / TNFα mRNA expression: 4 hours, control vs ALPK1-directed siRNA; for concentration required to induce IL-8 and TNFα mRNA expression: FIG. 5
Procedure: To test whether HBP, HMP-1bP, and H1b-ADP were able to induce cytokine expression in an ALPK1 dependent manner, we used an ALPK1-directed small interfering RNA (siRNA) to silence ALPK1 expression in HEK293 cells. Cells were plated (1×10^4 cells/well) into 96-well plates and transfected with either control siRNA or ALPK1-directed siRNA according to the manufacturer's protocols (Lipofectamine™ RNAiMax™, Invitrogen 13778075). Following 2 days of culture, either (1) HBP (500 uM, 100 uM, 20 uM, FIG. 2A-2B) (2) HMP-1bP (500 uM, 100 uM, FIG. 3A-3B), (3) H1b-ADP (100 nM, 20 nM, 4 nM, 0.8 nM, FIG. 4A-4B) was added to culture medium and cells were harvested 4 hours later.

ALPK1 [7] = target: T1, ALPK1; test: Cell-free kinase assay of ALPK1 autophosphorylation (Western, anti-phospho-threonine); type: biochemical; details: ALPK1 2 nM, ATP; H1b-ADP 10, 1, 0.2 nM; HBP and HMP-1bP 1, 10, 100 nM
Procedure: ALPK1 activation results in its autophosphorylation. Accordingly, we next asked whether the binding of H1b-ADP to ALPK1 was sufficient to induce ALPK1 autophosphorylation. Phosphorylation assays were performed according to standard protocols. Briefly, ALPK1 was incubated (2 nM, 25° C., 1 h) in assay buffer (20 al, 25 mM HEPES pH 7.5, 50 mM KCl, 0.1 mM EDTA, 0.1 mM EGTA, 2 mM DTT, 1.5 mM CaCl2, 10 mM MgCl2) with ATP and chemically synthesized HBP, HMP-1bP, or H1b-ADP followed by denaturing gel electrophoresis and Western analysis with an anti-phospho-threonine antibody (CST) to detect autophosphorylation of ALPK1. […] The range of concentrations of HBP and HMP-1bP used in this assay (1 nM, 10 nM, 100 nM) was 10-fold higher than that used for H1b-ADP.

ALPK1 [8] = target: T1, ALPK1; test: Thermal shift assay (SYPRO Orange) for binding to ALPK1; details: ALPK1 7 uM; 1 uM, 5 uM, 25 uM, or 125 uM
Excerpt: The thermal shift assay is widely used to determine the binding of a molecule to a protein of interest. The assay is based on the increase in thermal energy required for denaturation of a protein where another molecule is bound to the protein. SYPRO Orange is a fluorescent compound used in the detection of thermal shift. SYPRO Orange binds to hydrophobic surfaces of the protein, and water strongly quenches its fluorescence. When the protein unfolds, the exposed hydrophobic surfaces bind the dye, resulting in an increase in fluorescence. When another molecule is bound to the protein, an increase in the temperature required for unfolding of the protein is observed.
This assay system was used to determine whether or not chemically synthesized HBP, HMP-1bP, and H1b-ADP directly bind to ALPK1. […] Only H1b-ADP induced a shift of more than 1 degree, at each of the three highest concentrations tested, 5 uM, 25 uM, and 125 uM.

[9] = Example 18: 50 nmol, injections days 7, 9, 11

| SMILES | tumor growth (CT26 cells; [9]) | IL8 secretion in HEK293 cells (ALPK1 [4]) | IL-8 mRNA expression (ALPK1 [6]) | TNFα mRNA expression (ALPK1 [6]) | concentration required to induce IL-8 and TNFα mRNA expression (ALPK1 [6]) | phosphorylation of the ALPK1 substrate TIFA (ALPK1 [5]) | autophosphorylation of ALPK1 (ALPK1 [7]) | thermal shift / direct binding to ALPK1 (ALPK1 [8]) | other results |
| --- | --- | --- | --- | --- | --- | --- | --- | --- | --- |
| Nc1ncnc2c1ncn2[C@@H]1O[C@H](COP(=O)(O)O)[C@@H](O)[C@H]1O [AMP] |  |  |  |  |  |  |  |  | restoration of H1b-ADP's activity in the cell based assay (ALPK1 [1]): could restore H1b-ADP's activity; phosphatase activity in serum [2]: inhibited phosphatase activity and the inhibition was AMP dose-dependent |
| CC(=O)OC[C@@H](OC(C)=O)[C@H]1O[C@@H](OP(=O)(O)OP(=O)(O)OC[C@H]2O[C@@H](n3cnc4c(N)ncnc43)[C@H](O)[C@@H]2F)[C@@H](OC(C)=O)[C@@H](OC(C)=O)[C@@H]1OC(C)=O [Compound 1, (2S,3S,4S,5R,6R)-2-(((((((2R,3S,4S,5R)-5-(6-amino-9H-purin-9-yl)-3-fluoro-4-hydroxytetrahydrofuran-2-yl)methoxy)(hydroxy)phosphoryl)oxy)(hydroxy)phosphoryl)oxy)-6-((R)-1,2-diacetoxyethyl)tetrahydro-2H-pyran-3,4,5-triyl triacetate] | reduced tumor growth | activate IL8 secretion |  |  |  |  |  |  | dose activating an inflammatory response in lung tissue [3]: 200 nmol; dose activating an inflammatory response in liver tissue ([3]; 2 nmole = 1.2 μg): ≤ 2 nmol |
| Nc1ncnc2c1ncn2[C@@H]1O[C@H](COP(=O)(O)OP(=O)(O)O[C@@H]2OC([C@H](O)CO)[C@@H](O)C(O)C2O)C(F)C1O (stereo partly drawn) [Compound 2, Adenosine-3′-fluoro-5′-(D-glycero-β-D-mannoheptopyranosyl) diphosphate] | reduced tumor growth | activate IL8 secretion |  |  |  |  |  |  |  |
| Nc1ncnc2c1ncn2[C@@H]1O[C@H](COP(=O)(O)OP(=O)(O)O[C@@H]2O[C@H]([C@@H](O)CO)[C@@H](O)[C@H](O)[C@@H]2O)[C@@H](O)[C@H]1O [Compound H1b-ADP-6L, L-glycero-D-manno-heptose-1β-ADP] |  |  |  |  |  |  |  |  | TIFA phosphorylation (ALPK1-dependent signaling) (ALPK1 [5]; ALPK1 2 nM, TIFA 1.6 uM, 50 uM ATP, 2 nM to 3 pM): activated ALPK1-dependent signaling in a manner similar to H1b-ADP |
| O=P(O)(O)OC[C@@H](O)[C@H]1O[C@@H](OP(=O)(O)O)[C@@H](O)[C@@H](O)[C@@H]1O [HBP, D-glycero-β-D-manno-heptose 1,7-bisphosphate] |  |  | increased in an ALPK1-dependent manner | increased in an ALPK1-dependent manner | 100 µM | only in the presence of H1b-ADP | not | Neither HBP nor HMP-1bP were able to induce a thermal shift | anti-tumor activity in a murine tumor model (CT26 cells; summary statement): not |
| O=P(O)(O)O[C@@H]1O[C@H]([C@H](O)CO)[C@@H](O)[C@H](O)[C@@H]1O [HMP-1bP, D-glycero-β-D-manno-heptose-1-phosphate] |  |  | increased in an ALPK1-dependent manner | increased in an ALPK1-dependent manner | 100 µM | only in the presence of H1b-ADP | not | Neither HBP nor HMP-1bP were able to induce a thermal shift | tumor growth (CT26 cells; intratumoral, days 6, 8, 10, 12, 14, HMP-1bP 580 ug, H1b-ADP 1.2 ug): not |
